# From PubChem BioAssay (NCI)
#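 Results reflect a 48-hour exposure of cells in 96-well plates to compound at five concentrations. The concentration for full growth arrest is given as TGI.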
# How the values were obtained:
# Experiment in all cases: NCI anticancer screen, dose series, 48 h
# 786-0 renal = test system: 786-0 renal
# A498 renal = test system: A498 renal
# A549 NSCLC = test system: A549 NSCLC
# ACHN renal = test system: ACHN renal
# CAKI-1 renal = test system: CAKI-1 renal
# CCRF-CEM leukemia = test system: CCRF-CEM leukemia
# COLO 205 colon = test system: COLO 205 colon
# DLD-1 colon = test system: DLD-1 colon
# DMS 114 small cell lung = test system: DMS 114 small cell lung
# DMS 273 small cell lung = test system: DMS 273 small cell lung
# EKVX NSCLC = test system: EKVX NSCLC
# HCC-2998 colon = test system: HCC-2998 colon
# HCT-116 colon = test system: HCT-116 colon
# HCT-15 colon = test system: HCT-15 colon
# HOP-18 NSCLC = test system: HOP-18 NSCLC
# HOP-62 NSCLC = test system: HOP-62 NSCLC
# HOP-92 NSCLC = test system: HOP-92 NSCLC
# IGROV1 ovarian = test system: IGROV1 ovarian
# K-562 leukemia = test system: K-562 leukemia
# KM12 colon = test system: KM12 colon
# KM20L2 colon = test system: KM20L2 colon
# LOX IMVI melanoma = test system: LOX IMVI melanoma
# LXFL 529 NSCLC = test system: LXFL 529 NSCLC
# M14 melanoma = test system: M14 melanoma
# M19-MEL melanoma = test system: M19-MEL melanoma
# MALME-3M melanoma = test system: MALME-3M melanoma
# NCI-H226 lung = test system: NCI-H226 lung
# NCI-H23 lung = test system: NCI-H23 lung
# NCI-H460 lung = test system: NCI-H460 lung
# NCI-H522 lung = test system: NCI-H522 lung
# OVCAR-3 ovarian = test system: OVCAR-3 ovarian
# OVCAR-4 ovarian = test system: OVCAR-4 ovarian
# OVCAR-5 ovarian = test system: OVCAR-5 ovarian
# OVCAR-8 ovarian = test system: OVCAR-8 ovarian
# RPMI-8226 leukemia = test system: RPMI-8226 leukemia
# RXF 393 renal = test system: RXF 393 renal
# RXF-631 renal = test system: RXF-631 renal
# SF-268 CNS = test system: SF-268 CNS
# SF-539 CNS = test system: SF-539 CNS
# SK-MEL-2 melanoma = test system: SK-MEL-2 melanoma
# SK-MEL-28 melanoma = test system: SK-MEL-28 melanoma
# SK-MEL-5 melanoma = test system: SK-MEL-5 melanoma
# SK-OV-3 ovarian = test system: SK-OV-3 ovarian
# SN12C renal = test system: SN12C renal
# SNB-19 CNS = test system: SNB-19 CNS
# SNB-75 CNS = test system: SNB-75 CNS
# SNB-78 CNS = test system: SNB-78 CNS
# SW-620 colon = test system: SW-620 colon
# TK-10 renal = test system: TK-10 renal
# U251 CNS = test system: U251 CNS
# UACC-257 melanoma = test system: UACC-257 melanoma
# UACC-62 melanoma = test system: UACC-62 melanoma
# UO-31 renal = test system: UO-31 renal
# XF 498 CNS = test system: XF 498 CNS
# HL-60(TB) leukemia = test system: HL-60(TB) leukemia
# HT29 colon = test system: HT29 colon
# MOLT-4 leukemia = test system: MOLT-4 leukemia
# SF-295 CNS = test system: SF-295 CNS
compound,measurement,setting,value
COC(=O)C(CC(C)=O)CS(=O)(=O)CC(=O)C(=O)Nc1cccc([N+](=O)[O-])c1 (centres undefined),TGI,786-0 renal,> 100 µM
same,TGI,A498 renal,> 100 µM
same,TGI,A549 NSCLC,> 100 µM
same,TGI,ACHN renal,> 100 µM
same,TGI,CAKI-1 renal,> 100 µM
same,TGI,CCRF-CEM leukemia,> 100 µM
same,TGI,COLO 205 colon,> 100 µM
same,TGI,DLD-1 colon,> 100 µM
same,TGI,DMS 114 small cell lung,> 100 µM
same,TGI,DMS 273 small cell lung,> 100 µM
same,TGI,EKVX NSCLC,> 100 µM
same,TGI,HCC-2998 colon,> 100 µM
same,TGI,HCT-116 colon,> 100 µM
same,TGI,HCT-15 colon,> 100 µM
same,TGI,HOP-18 NSCLC,> 100 µM
same,TGI,HOP-62 NSCLC,> 100 µM
same,TGI,HOP-92 NSCLC,> 100 µM
same,TGI,IGROV1 ovarian,> 100 µM
same,TGI,K-562 leukemia,> 100 µM
same,TGI,KM12 colon,> 100 µM
same,TGI,KM20L2 colon,> 100 µM
same,TGI,LOX IMVI melanoma,> 100 µM
same,TGI,LXFL 529 NSCLC,> 100 µM
same,TGI,M14 melanoma,> 100 µM
same,TGI,M19-MEL melanoma,> 100 µM
same,TGI,MALME-3M melanoma,> 100 µM
same,TGI,NCI-H226 lung,> 100 µM
same,TGI,NCI-H23 lung,> 100 µM
same,TGI,NCI-H460 lung,> 100 µM
same,TGI,NCI-H522 lung,> 100 µM
same,TGI,OVCAR-3 ovarian,> 100 µM
same,TGI,OVCAR-4 ovarian,> 100 µM
same,TGI,OVCAR-5 ovarian,> 100 µM
same,TGI,OVCAR-8 ovarian,> 100 µM
same,TGI,RPMI-8226 leukemia,> 100 µM
same,TGI,RXF 393 renal,> 100 µM
same,TGI,RXF-631 renal,> 100 µM
same,TGI,SF-268 CNS,> 100 µM
same,TGI,SF-539 CNS,> 100 µM
same,TGI,SK-MEL-2 melanoma,> 100 µM
same,TGI,SK-MEL-28 melanoma,> 100 µM
same,TGI,SK-MEL-5 melanoma,> 100 µM
same,TGI,SK-OV-3 ovarian,> 100 µM
same,TGI,SN12C renal,> 100 µM
same,TGI,SNB-19 CNS,> 100 µM
same,TGI,SNB-75 CNS,> 100 µM
same,TGI,SNB-78 CNS,> 100 µM
same,TGI,SW-620 colon,> 100 µM
same,TGI,TK-10 renal,> 100 µM
same,TGI,U251 CNS,> 100 µM
same,TGI,UACC-257 melanoma,> 100 µM
same,TGI,UACC-62 melanoma,> 100 µM
same,TGI,UO-31 renal,> 100 µM
same,TGI,XF 498 CNS,> 100 µM
CC1(c2cccc(N)c2)C2C(=O)NC(=O)C1C(=O)NC2=O (centres undefined),TGI,786-0 renal,> 100 µM
same,TGI,A498 renal,99.6 µM
same,TGI,A549 NSCLC,> 100 µM
same,TGI,ACHN renal,78.5 µM
same,TGI,CAKI-1 renal,> 100 µM
same,TGI,CCRF-CEM leukemia,62.5 µM
same,TGI,COLO 205 colon,50.2 µM
same,TGI,DLD-1 colon,> 100 µM
same,TGI,DMS 114 small cell lung,96.9 µM
same,TGI,DMS 273 small cell lung,73.3 µM
same,TGI,EKVX NSCLC,> 100 µM
same,TGI,HCC-2998 colon,> 100 µM
same,TGI,HCT-15 colon,> 100 µM
same,TGI,HL-60(TB) leukemia,43.2 µM
same,TGI,HOP-62 NSCLC,> 100 µM
same,TGI,HOP-92 NSCLC,57.3 µM
same,TGI,HT29 colon,> 100 µM
same,TGI,IGROV1 ovarian,> 100 µM
same,TGI,K-562 leukemia,67.3 µM
same,TGI,KM12 colon,> 100 µM
same,TGI,KM20L2 colon,> 100 µM
same,TGI,LOX IMVI melanoma,81.1 µM
same,TGI,LXFL 529 NSCLC,> 100 µM
same,TGI,M14 melanoma,> 100 µM
same,TGI,M19-MEL melanoma,> 100 µM
same,TGI,MALME-3M melanoma,95 µM
same,TGI,MOLT-4 leukemia,47.6 µM
same,TGI,NCI-H226 lung,83.8 µM
same,TGI,NCI-H23 lung,48.5 µM
same,TGI,NCI-H460 lung,> 100 µM
same,TGI,NCI-H522 lung,46.3 µM
same,TGI,OVCAR-3 ovarian,57.1 µM
same,TGI,OVCAR-4 ovarian,> 100 µM
same,TGI,OVCAR-5 ovarian,> 100 µM
same,TGI,OVCAR-8 ovarian,> 100 µM
same,TGI,RPMI-8226 leukemia,40.3 µM
same,TGI,RXF 393 renal,71.2 µM
same,TGI,RXF-631 renal,> 100 µM
same,TGI,SF-268 CNS,> 100 µM
same,TGI,SF-295 CNS,58.8 µM
same,TGI,SF-539 CNS,81.7 µM
same,TGI,SK-MEL-2 melanoma,57.7 µM
same,TGI,SK-MEL-28 melanoma,> 100 µM
same,TGI,SK-MEL-5 melanoma,37 µM
same,TGI,SK-OV-3 ovarian,91.5 µM
same,TGI,SN12C renal,97.7 µM
same,TGI,SNB-19 CNS,> 100 µM
same,TGI,SNB-75 CNS,73.2 µM
same,TGI,SNB-78 CNS,> 100 µM
same,TGI,SW-620 colon,> 100 µM
same,TGI,TK-10 renal,> 100 µM
same,TGI,UACC-257 melanoma,> 100 µM
same,TGI,UACC-62 melanoma,> 100 µM
same,TGI,UO-31 renal,67.8 µM
same,TGI,XF 498 CNS,64.4 µM
